EP1509285B1, “SYNERGISTIC COMPOSITION OF TRANS-TETRACOS-15-ENOIC ACID AND APOCYNIN AND USE THEREOF” (COUNCIL OF SCIENTIFIC AND INDUSTRIAL RESEARCH, priority 2002, dated 2003)

Tests used:
[1] = test system: CCl4 induced hepatic injury; assay: Hepatoprotective activity (in vivo) against CCl4 induced hepatic injury; conditions: rats; for Hepatic parameters Glutathione / Hepatic parameters Lipid peroxidation / Serum parameters ALP / Serum parameters Bilirubin / Serum parameters Triglycerides / Serum parameters GOT / Serum parameters GPT: 50 mg kg-1 p.o. at 48h, 24h, 2h before and 6h after CCl4 0.5 ml kg-1 p.o.; for Serum parameters GOT / Serum parameters GPT: unit is µmole pyruvate/min/L; for hepatoprotective activity percent, ALP / hepatoprotective activity percent, Bilirubin / hepatoprotective activity percent, GOT / hepatoprotective activity percent, GPT / hepatoprotective activity percent, Glutathione / hepatoprotective activity percent, Lipid peroxidation / hepatoprotective activity percent, Triglycerides: CCl4, 50 mg kg-1 p.o., H = [1-(TC-V/VC-V)] × 100
Description: i. Animals: The pharmacological studies are conducted on Wistar albino rats (150-180g) and Swiss albino mice (25-30g) of either sex, colony - bred in the Institute's animal house. After procurement, all the animals are divided into different groups and are left for one week for acclimatization to experimentation room and are maintained on standard conditions (23±2°C, 60-70 % relative humidity and 12 h photo period). The animals are fed with standard rodents pellet diet and water ad libitum. There are six animals in each group except for general behaviour and acute toxicity studies where ten animals are used in each group.
Carbon tetrachloride (CCl4): CCl4 is one of the most powerful hepatotoxins (in term of severity of injury). It causes toxic necrosis, which leads to biochemical changes having clinical features similar to those of acute viral hepatitis (Vogel, 1977, Bramanti et. al., 1978, Kumar et. al., 1992). Liver injury is produced by administration of CCl4 mixed with liquid paraffin. Animals are given single dose of CCl4 (50 µl.kg^-1, p.o.) in acute single treatment and (0.5 ml.kg^-1, p.o.) in case of multitreatment with drug. It is administered orally (p.o) by gastric intubation. The control animals received the equal volume of liquid paraffin. (Table 3, 4).
Freshly prepared suspension (1%, w/v) in 0.2% gum acacia in normal saline is used for all the experiments except for toxicity studies where (10 %, w/v) suspension is used. Silymarin suspension (1%, w/v) in 0.2 % gum acacia is used as a reference standard (positive control).
Treatment of test material before and after hepatotoxin: The doses of TCA and APO individually and in mixture, silymarin (50 mg/kg, p.o. each) and vehicle (normal saline) are fed to different groups of rats at 48 hours, 24 hours and 2 hours before and 6 hours after hepatotoxin (CCl4 , 0.5 ml.kg^-1, p.o.) intoxication. Blood is collected from orbital sinus in all the animals 18 hours after last treatment and serum separated for different estimations. All the animals are then killed by decapitation, their livers are quickly excised, cleaned of adhering tissue, weighed and homogenised in phosphate buffer saline for the analysis of hepatic parameters (Agarwal and Mehendale, 1983, Klingensmith and Mehendale, 1982, Zimmerman, 1973, Edmondson and Peter, 1985, Mitchell, et al, 1973). (Table 3-4).
• GPT and GOT: Pyruvate formed by transamination reaction is determined spectrophotometrically after reaction with 2,4-dinitrophenylhydrazine (Reitman and Frankel, 1957). • ALP : p-nitrophenol formed in alkaline medium is measured spectrophotometrically using p-nitrophenyl phosphate as substrate (Walter and Schutt, 1974). • Bilirubin : Total bilirubin is measured by diazotization reaction with NaNO2 (Malloy and Evelyn, 1937) • Triglycerides : Triglycerides from serum are extracted with isopropanol and sopanified with KOH. The liberated glycerol is converted to formaldehyde by periodate and determined after reaction with acetyl acetone. Triolein is used as standard (Neri and Firings, 1973). • Glutathione: It is determined after deproteination by reaction with DTNB (Ellman 1959 as modified by David 1987). • Lipid peroxidation: Thiobarbituric acid reacting substances are determined spectrophotometrically at 535 nm. Buege. and Aust. (1978).
Hepatoprotective activity (H) is calculated by the following equation: H = [1-(TC-V/VC-V)] × 100 [formula]
Where TC, VC, and V are drug + toxin, vehicle + toxin and vehicle treated groups of animals respectively.

[2] = test system: galactosamine, paracetamol and CCl4 as hepatotoxins; assay: Earlier RRL Jammu study: hepatoprotective effect against galactosamine, paracetamol and CCl4 as hepatotoxins, silymarin as reference; type: in vivo; conditions: synthesized constituent; silymarin as reference material
[3] = Table 4 (own control groups), mean ± S. E.

Compound: COc1cc(C(C)=O)ccc1O [APO, Apocynin]
- Hepatic parameters Glutathione [1, 3]: 4.44±0.26 µ mole GSH/g liver
- Hepatic parameters Lipid peroxidation [1, 3]: 48.12±2.28 n moles MDA/g liver
- Serum parameters ALP [1, 3]: 26.66±2.06 µ mole ofp-nitrophenol formed/min/ L
- Serum parameters Bilirubin [1, 3]: 0.37±0.01 mg %
- Serum parameters Triglycerides [1, 3]: 28.00±2.39 mg %
- Serum parameters GOT [1, 3]: 489.39±66.82 Units
- Serum parameters GPT [1, 3]: 838.58±69.65 Units
- hepatoprotective activity percent, ALP ([1]; Table 4): (86.05) percent
- hepatoprotective activity percent, Bilirubin ([1]; Table 4): (48.94) percent
- hepatoprotective activity percent, GOT ([1]; Table 4): (39.31) percent
- hepatoprotective activity percent, GPT ([1]; Table 4): (47.86) percent
- hepatoprotective activity percent, Glutathione ([1]; Table 4): (40.73) percent
- hepatoprotective activity percent, Lipid peroxidation ([1]; Table 4): (42.77) percent
- hepatoprotective activity percent, Triglycerides ([1]; Table 4): (36.68) percent

Compound: CCCCCCCC/C=C/CCCCCCCCCCCCCC(=O)O [TCA, trans-tetracos-15-enoic acid]
- Hepatic parameters Glutathione ([1]; Table 3, mean ± S.E.): 5.35±0.51 µ mole GSH/g liver
- Hepatic parameters Lipid peroxidation ([1]; Table 3, mean ± S.E.): 46.88±2.58 n moles MDA/g liver
- Serum parameters ALP ([1]; Table 3, mean ± S.E.): 28.72±3.90 µ mole of p-nitrophenol formed/min/ L
- Serum parameters Bilirubin ([1]; Table 3, mean ± S.E.): 0.35±0.02 mg %
- Serum parameters Triglycerides ([1]; Table 3, mean ± S.E.): 23.53±1.77 mg %
- Serum parameters GOT ([1]; Table 3, mean ± S.E.): 409.73±46.57 Units
- Serum parameters GPT ([1]; Table 3, mean ± S.E.): 324.84±42.09 Units
- hepatoprotective activity percent, ALP ([1]; Table 3): (81.78) percent
- hepatoprotective activity percent, Bilirubin ([1]; Table 3): (55.55) percent
- hepatoprotective activity percent, GOT ([1]; Table 3): (62.16) percent
- hepatoprotective activity percent, GPT ([1]; Table 3): (74.63) percent
- hepatoprotective activity percent, Glutathione ([1]; Table 3): (52.92) percent
- hepatoprotective activity percent, Lipid peroxidation ([1]; Table 3): (64.33) percent
- hepatoprotective activity percent, Triglycerides ([1]; Table 3): (66.05) percent
- hepatoprotective effect against galactosamine, paracetamol and CCl4 as hepatotoxins [2]: dose related hepatoprotective effect
